pEC50: −log10 of the molar value.
Columns and labels:
SRPK2 = SRPK2 (Homo sapiens (Human), UniProt P78362); assay: KINOMEscan competitive binding assay; conditions: 10 uM
PFTK1 = PFTK1 (Homo sapiens (Human), UniProt O94921); assay: KINOMEscan competitive binding assay; conditions: 10 uM
VEGFR2 = VEGFR2 (Homo sapiens (Human), UniProt P35968); assay: KINOMEscan competitive binding assay; conditions: 10 uM
Protocol: In vitro kinase screen and competitive binding assay. […] For the competitive binding assay, test compounds were screened at 10 μM against 70 diverse kinase targets for competitive binding using the KINOMEscan™ technology (Ambit Biosciences) (Karaman, et al. (2008) Nature biotechnology 26:127-132). 11-point Kd curves were determined for hits identified during the initial screen.

1205 Lu melanoma cells = assay: 1205 Lu melanoma subcutaneous xenograft; assay type: in vivo, mice; conditions: 50 mg/kg, bid, ip for 2 weeks
Protocol: Human 1205 Lu melanoma cells, which express BRAF V600E, were subcutaneously implanted into the flank of 6-8 week old female Nu/Nu mice. The tumor cells were trypsinized and resuspendend in 1:1 PBS:growth factor depeleted Matrigel (BD Biosciences) and […] containing 1×10^6 cells was injected into the flank. An excess of mice bearing tumors were utilized and groups of 6 animals were chosen based on the symmetry of the tumor and randomized to give each group an average of 50 mm^3 (day 10). […] The vehicle was 10% HS-15 (known as Solutol, BASF, Inc.) in 3.33% dextrose. Tumor growth was monitored by measuring the tumor length and width with precision calipers every 3 days and calculating tumor volume using the following formula: Tumor volume=0.5*(length)*(width)^2, provided the smaller measurement was utilized as the length.

M21L = assay: Tumor cell viability; assay type: cell-based; conditions: Melanoma M21L
Protocol: (§1) For XTT assays, cells were grown in 96-well plates overnight and all assays were conducted in growth medium will full serum and additives. Compounds were serially diluted in DMSO and then further diluted into the medium to give the appropriate concentration while minimizing precipitation associated with serial diluting in medium alone Inhibitors were added for 72 h and cell viability was quantified at 450 nm after the addition of 1 mg/ml XTT solution (Sigma-Aldrich) in phenol-red free DMEM medium containing […] (Sigma-Aldrich). Dose-response curves were plotted using GraphPad Prism software and EC50s were calculated using this program.

A431 = assay: Tumor cell viability; assay type: cell-based; conditions: Epithelial Carcinoma A431, HER1
Protocol: as §1

MLK3 = MLK3 (Homo sapiens (Human), UniProt Q16584); assay: KINOMEscan competitive binding assay; conditions: 10 uM
ABL1 = ABL1 (Homo sapiens (Human), UniProt P00519); assay: KINOMEscan competitive binding assay; conditions: 10 uM
Protocol: For the competitive binding assay, test compounds were screened at 10 μM against 70 diverse kinase targets for competitive binding using the KINOMEscan™ technology (Ambit Biosciences) (Karaman, et al. (2008) Nature biotechnology 26:127-132). 11-point Kd curves were determined for hits identified during the initial screen.

CDK8 = CDK8 (Homo sapiens (Human), UniProt P49336); assay: KINOMEscan competitive binding assay; conditions: 10 uM
[1] = test system: VEGF-C induced lymphangiogenesis; assay: Lymph node lymphangiogenesis model (VEGF-C Matrigel); assay type: in vivo, mice; conditions: 200 μl of 5.25 mg/ml ip twice daily, 7 days
Protocol: (FIG. 12A) Images of local lymph node lymphangiogenesis model between saline and VEGF-C matrigel.
Lymphangiogenesis assays were performed by subcutaneously injecting 350 μl of cold Matrigel containing saline or […] of VEGF-C(R&D Systems, Minneapolis, Minn.) into wild-type C57B1/6 mice. […] After 7 days, lymph nodes were removed, embedded in OCT, frozen and sectioned. Thin sections (5 μm) were fixed in ice cold acetone for five minutes, permeabilized in 0.1% Triton X-100 in phosphate buffered saline (PBS), blocked in 8% normal donkey serum diluted in PBS for 1.5 hours at room temperature and then incubated with 2 μg/ml anti-murine Lyve-1 (RDI-103PA50) in 8% normal donkey serum diluted in saline overnight at 4° C. After extensive washing, slides were incubated with 1 μg/ml cross-absorbed donkey anti-rabbit IgG (H+L) conjugated with Alexa Fluor 488 (Invitrogen). Slides were counterstained with DAPI. Coverslips were mounted with Dako Cytomation fluorescent mounting medium (Dako Corporation, Carpinteria, Calif.). At least five microscopic fields per tissue section/mouse were analyzed for quantification studies.

CDC2L2 = CDC2L2 (Homo sapiens (Human), UniProt Q9UQ88); assay: KINOMEscan competitive binding assay; conditions: 10 uM
PRKCE = PRKCE (Homo sapiens (Human), UniProt Q02156); assay: KINOMEscan competitive binding assay; conditions: 10 uM
MEK S298 = assay: PAK-mediated MEK S298 phosphorylation in endothelial cells; assay type: cell-based, human; conditions: HUVECs stimulated with bFGF or VEGF, 5 μM
Protocol: FIG. 1A-1F illustrate molecular modeling and assay screening to compounds for dual targeting of PDGFRβ and RAF. (FIG. 1A) Molecular modeling of the amino-triazole based small molecules in PDGFRβ and RAF, respectively. […] A homology model of PDGFRβ was created with a structurally-related family member (VEGFR2, PDB 1y6b). […] To autophosphorylation, immunoblots were carried out with a phospho-tyrosine antibody. Membranes were stripped and reprobed for total PDGFRβ levels. […] (FIG. 1D) Structure activity relationships of the amino-triazole based small molecules comparing both PDGFRβ and B-RAF. […] Curves represent the average of 3 separate experiments, error bars represent ±SEM.
Following stimulation with bFGF, VEGFA or PDGF-BB, cells were washed 1× with ice-cold PBS and lysed in RIPA buffer. For the PDGFRβ autophosphorylation assay in VSMCs, 500 μg of protein from lysates was incubated with 3 μg of anti-PDGFRβ (sc-432, Santa Cruz Biotechnology) for 1 h at 4° C. and subsequently tumbled overnight with protein A/G beads (Pierce) for immunoprecipitation. […] HRP conjugated primary or secondary Abs were detected with SuperSignal ECL (Pierce). […]

MYO3A = MYO3A (Homo sapiens (Human), UniProt Q8NEV4); assay: KINOMEscan competitive binding assay; conditions: 10 uM
CSNK1E = CSNK1E (Homo sapiens (Human), UniProt P49674); assay: KINOMEscan competitive binding assay; conditions: 10 uM
XPA1-RFP = assay: Tumor cell viability; assay type: cell-based, human; conditions: Pancreatic AC XPA1-RFP, K-Ras
Protocol: as §1

1205Lu = assay: Tumor cell viability; assay type: cell-based, human; conditions: Melanoma 1205Lu, B-RAF V600E
Protocol: as §1

Sequence of MYO3A (Q8NEV4 whole entry): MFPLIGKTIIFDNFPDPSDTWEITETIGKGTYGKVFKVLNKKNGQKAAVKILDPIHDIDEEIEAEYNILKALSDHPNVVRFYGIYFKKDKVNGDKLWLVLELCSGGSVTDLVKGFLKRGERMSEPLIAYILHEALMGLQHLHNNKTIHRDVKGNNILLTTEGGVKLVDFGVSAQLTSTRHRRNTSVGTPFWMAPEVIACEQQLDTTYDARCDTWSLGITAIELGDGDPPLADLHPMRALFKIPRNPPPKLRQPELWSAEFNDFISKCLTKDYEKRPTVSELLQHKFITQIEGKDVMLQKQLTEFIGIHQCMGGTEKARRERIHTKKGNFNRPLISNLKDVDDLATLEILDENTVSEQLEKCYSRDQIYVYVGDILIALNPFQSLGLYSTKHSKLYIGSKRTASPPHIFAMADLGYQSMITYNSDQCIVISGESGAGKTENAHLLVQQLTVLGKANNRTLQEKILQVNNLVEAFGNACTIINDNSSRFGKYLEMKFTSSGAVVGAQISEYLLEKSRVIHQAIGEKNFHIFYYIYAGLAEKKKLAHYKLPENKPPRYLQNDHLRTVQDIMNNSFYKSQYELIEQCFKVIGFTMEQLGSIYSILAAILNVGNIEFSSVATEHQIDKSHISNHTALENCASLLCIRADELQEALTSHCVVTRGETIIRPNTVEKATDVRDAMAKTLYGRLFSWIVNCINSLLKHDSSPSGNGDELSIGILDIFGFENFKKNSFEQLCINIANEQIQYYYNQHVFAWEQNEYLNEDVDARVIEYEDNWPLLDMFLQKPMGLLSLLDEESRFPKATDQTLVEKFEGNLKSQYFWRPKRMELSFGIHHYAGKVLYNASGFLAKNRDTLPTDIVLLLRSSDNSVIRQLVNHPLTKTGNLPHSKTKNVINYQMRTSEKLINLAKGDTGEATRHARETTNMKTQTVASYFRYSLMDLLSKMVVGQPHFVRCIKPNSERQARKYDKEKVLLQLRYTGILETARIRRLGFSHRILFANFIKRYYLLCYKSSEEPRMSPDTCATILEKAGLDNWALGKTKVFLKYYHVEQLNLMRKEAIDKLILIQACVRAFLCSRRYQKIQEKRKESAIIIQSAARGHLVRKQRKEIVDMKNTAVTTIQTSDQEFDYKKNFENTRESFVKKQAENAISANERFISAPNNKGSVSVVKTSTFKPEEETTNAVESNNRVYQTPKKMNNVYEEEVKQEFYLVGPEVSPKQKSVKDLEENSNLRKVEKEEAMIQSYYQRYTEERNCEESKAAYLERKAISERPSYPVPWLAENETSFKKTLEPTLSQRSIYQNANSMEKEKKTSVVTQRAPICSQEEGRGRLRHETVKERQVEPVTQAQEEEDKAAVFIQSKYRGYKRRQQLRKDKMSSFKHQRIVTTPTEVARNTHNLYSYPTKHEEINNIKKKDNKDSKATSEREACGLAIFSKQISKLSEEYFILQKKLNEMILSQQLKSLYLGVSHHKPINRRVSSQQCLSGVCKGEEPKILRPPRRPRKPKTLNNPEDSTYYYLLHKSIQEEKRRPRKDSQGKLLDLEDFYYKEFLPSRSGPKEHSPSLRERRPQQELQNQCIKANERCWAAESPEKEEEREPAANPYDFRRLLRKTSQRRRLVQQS
Sequence of SRPK2 (P78362 whole entry): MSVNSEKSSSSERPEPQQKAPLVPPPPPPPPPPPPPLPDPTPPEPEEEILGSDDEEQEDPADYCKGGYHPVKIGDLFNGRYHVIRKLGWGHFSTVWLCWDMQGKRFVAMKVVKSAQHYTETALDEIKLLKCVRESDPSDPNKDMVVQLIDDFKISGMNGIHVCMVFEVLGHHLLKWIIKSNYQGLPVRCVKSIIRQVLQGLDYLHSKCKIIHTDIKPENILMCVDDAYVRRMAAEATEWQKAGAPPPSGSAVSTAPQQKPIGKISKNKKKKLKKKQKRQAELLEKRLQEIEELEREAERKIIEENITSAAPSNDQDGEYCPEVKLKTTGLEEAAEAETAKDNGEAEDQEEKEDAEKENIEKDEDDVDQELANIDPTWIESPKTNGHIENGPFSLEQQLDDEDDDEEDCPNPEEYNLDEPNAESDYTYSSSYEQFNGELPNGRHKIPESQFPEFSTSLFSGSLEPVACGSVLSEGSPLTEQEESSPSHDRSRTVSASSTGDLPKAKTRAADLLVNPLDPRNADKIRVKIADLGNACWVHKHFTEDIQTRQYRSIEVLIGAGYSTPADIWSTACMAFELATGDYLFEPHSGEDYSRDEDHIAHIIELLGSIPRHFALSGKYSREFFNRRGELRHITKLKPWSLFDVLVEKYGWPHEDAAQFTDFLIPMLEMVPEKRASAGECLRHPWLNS
Sequence of CDC2L2 (Q9UQ88 whole entry): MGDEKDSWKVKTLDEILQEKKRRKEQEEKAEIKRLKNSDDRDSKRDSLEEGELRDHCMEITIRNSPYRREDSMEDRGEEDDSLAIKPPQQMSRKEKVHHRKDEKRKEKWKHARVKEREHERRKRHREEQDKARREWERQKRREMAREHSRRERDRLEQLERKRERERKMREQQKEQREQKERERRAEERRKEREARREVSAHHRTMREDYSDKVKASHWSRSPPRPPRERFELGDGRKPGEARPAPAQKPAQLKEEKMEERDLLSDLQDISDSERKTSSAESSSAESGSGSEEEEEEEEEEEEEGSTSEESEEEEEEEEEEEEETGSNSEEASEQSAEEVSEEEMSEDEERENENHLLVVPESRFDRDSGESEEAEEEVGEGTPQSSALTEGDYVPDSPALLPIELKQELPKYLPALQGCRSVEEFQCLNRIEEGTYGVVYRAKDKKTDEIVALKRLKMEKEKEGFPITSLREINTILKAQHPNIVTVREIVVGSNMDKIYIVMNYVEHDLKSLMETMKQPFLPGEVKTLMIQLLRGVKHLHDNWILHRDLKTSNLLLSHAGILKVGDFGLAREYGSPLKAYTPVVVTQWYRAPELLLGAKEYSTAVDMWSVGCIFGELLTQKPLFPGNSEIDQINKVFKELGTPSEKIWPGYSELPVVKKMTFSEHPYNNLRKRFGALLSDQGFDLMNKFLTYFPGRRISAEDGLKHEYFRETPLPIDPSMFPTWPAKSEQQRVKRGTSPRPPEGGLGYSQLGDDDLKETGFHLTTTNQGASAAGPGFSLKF
Sequence of CDK8 (P49336 whole entry): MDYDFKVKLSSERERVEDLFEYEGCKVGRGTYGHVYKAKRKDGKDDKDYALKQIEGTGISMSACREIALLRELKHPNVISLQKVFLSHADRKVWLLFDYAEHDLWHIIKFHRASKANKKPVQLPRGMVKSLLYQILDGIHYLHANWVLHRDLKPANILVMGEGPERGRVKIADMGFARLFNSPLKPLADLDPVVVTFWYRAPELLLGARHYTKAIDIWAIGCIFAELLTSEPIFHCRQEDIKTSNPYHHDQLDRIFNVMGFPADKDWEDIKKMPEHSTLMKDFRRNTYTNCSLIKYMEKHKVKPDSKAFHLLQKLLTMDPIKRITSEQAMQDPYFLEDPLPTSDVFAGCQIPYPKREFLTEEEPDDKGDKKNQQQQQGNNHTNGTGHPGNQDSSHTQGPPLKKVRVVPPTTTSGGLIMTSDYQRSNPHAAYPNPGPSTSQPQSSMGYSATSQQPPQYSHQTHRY
Sequence of CSNK1E (P49674 whole entry): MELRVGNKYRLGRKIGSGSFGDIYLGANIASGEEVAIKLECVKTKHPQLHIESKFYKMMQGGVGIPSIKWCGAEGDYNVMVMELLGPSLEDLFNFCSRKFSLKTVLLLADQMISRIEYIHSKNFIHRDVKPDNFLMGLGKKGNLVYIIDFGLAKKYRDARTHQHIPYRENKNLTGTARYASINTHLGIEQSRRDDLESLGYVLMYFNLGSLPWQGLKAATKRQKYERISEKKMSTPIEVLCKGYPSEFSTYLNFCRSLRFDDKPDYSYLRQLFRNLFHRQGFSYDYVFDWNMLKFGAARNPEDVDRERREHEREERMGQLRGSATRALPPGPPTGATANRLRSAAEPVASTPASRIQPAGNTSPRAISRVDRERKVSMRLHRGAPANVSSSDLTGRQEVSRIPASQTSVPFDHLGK
Sequence of PRKCE (Q02156 whole entry): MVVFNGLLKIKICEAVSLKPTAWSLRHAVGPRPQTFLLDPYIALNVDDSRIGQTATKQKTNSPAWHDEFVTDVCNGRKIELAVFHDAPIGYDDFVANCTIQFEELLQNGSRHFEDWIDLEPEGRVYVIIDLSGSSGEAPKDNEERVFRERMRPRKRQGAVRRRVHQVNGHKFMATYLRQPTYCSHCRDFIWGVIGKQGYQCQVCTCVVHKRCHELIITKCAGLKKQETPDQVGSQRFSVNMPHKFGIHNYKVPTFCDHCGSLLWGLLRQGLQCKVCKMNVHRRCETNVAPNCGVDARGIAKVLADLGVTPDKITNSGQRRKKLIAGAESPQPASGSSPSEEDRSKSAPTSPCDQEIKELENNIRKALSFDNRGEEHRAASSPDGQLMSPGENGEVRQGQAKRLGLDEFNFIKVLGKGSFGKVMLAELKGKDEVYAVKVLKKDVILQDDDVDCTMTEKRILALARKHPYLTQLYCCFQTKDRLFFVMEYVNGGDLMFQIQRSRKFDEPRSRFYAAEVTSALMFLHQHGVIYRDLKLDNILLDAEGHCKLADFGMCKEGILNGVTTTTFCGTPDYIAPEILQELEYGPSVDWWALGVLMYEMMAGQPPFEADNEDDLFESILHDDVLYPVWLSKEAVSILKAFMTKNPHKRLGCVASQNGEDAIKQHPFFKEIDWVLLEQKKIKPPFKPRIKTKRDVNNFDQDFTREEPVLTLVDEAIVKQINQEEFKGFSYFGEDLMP

`CSc1nc(N)cc(Oc2ccc(-c3nnc(Nc4cccc(C(F)(F)F)c4)[nH]3)cc2)n1` [Compound 6] was tested, and the “% Control” value (SRPK2) was 100%, the “% Control” value (PFTK1) was 71% and the “% Control” value (VEGFR2) was 80%. The melanoma tumor growth (1205 Lu melanoma cells) was “suppresses melanoma tumor growth in vivo”, the pEC50 (M21L) was 6.38 and the pEC50 (A431) was 6.37. For the same molecule, the “% Control” value (MLK3) was 96%, the “% Control” value (ABL1) was 100% and the “% Control” value (CDK8) was 67%. For the same molecule, the “lymphangiogenesis in lymph nodes” value [1] was “clearly showed inhibition of lymphangiogenesis”, the “% Control” value (CDC2L2) was 83% and the “% Control” value (PRKCE) was 91%. The “PAK-mediated phosphorylation on MEK S298” value (MEK S298) was “did not block”, the “% Control” value (MYO3A) was 94% and the “% Control” value (CSNK1E) was 47%. The pEC50 (XPA1-RFP) was 6.55 and the pEC50 (1205Lu) was 6.08.

From patent US9260417B2, “Therapeutic methods and compositions involving allosteric kinase inhibition” (AMITECH THERAPEUTIC SOLUTIONS, INC., priority 2010, dated 2016)
